Here are results for seven compounds from ChEMBL document CHEMBL4706585, “Novel 2-indolinone thiazole hybrids as sunitinib analogues: Design, synthesis, and potent VEGFR-2 inhibition with potential anti-renal cancer activity” (Eur J Med Chem, 2020).

The structures appear in SMILES notation.

What is called IC50 is the concentration that gives 50% inhibition.

Experiment [1] has as its system CAKI-1. Nature of the experiment: Cytotoxicity against human CAKI-1 cells assessed as reduction in cell viability after 48 hrs by MTT assay. As to conditions: CAKI-1, 48 h. For orientation: Tetrazolium assays rely on reduction of a dye to a coloured formazan, in cell work by metabolically active cells.
Experiment [2] relates to A498. Nature of the experiment: Cytotoxicity against human A498 cells assessed as reduction in cell viability after 48 hrs by MTT assay. Conditions: A498, 48 h.
Experiment [3] is described as follows: Cytotoxicity against human RPTEC/TERT1 cells assessed as reduction in cell viability after 48 hrs by MTT assay.

In the case of `O=C1CS/C(=N\N=C2/C(=O)N(Cc3ccccc3)c3ccc(Cl)cc32)N1`, the IC50 in experiment [1] was determined as 35.6 µM; in experiment [2], 3.45 µM.
The corresponding values for `O=C1/C(=N\N=c2\[nH]c(-c3ccc([N+](=O)[O-])cc3)cs2)c2cc(Cl)ccc2N1Cc1ccccc1` are 5.78 µM and 24.7 µM.
For `CC(=O)c1s/c(=N\N=C2/C(=O)N(Cc3ccccc3)c3ccc(Cl)cc32)[nH]c1C`, the results for the IC50 in experiment [1] and in experiment [2] were 12.8 µM and 6.27 µM, respectively.
On to `CCOC(=O)c1s/c(=N\N=C2/C(=O)N(Cc3ccccc3)c3ccc(Cl)cc32)[nH]c1C`, for which the IC50 in experiment [1] stood at 3.31 µM; in experiment [3] it was 49.8 µM; in experiment [2], 1.23 µM.
As for `NC1=NNC(=O)/C1=C1/C(=O)N(Cc2ccccc2)c2ccc(Cl)cc21`, the IC50 in experiment [1] is 0.82 µM; in experiment [2], 8.53 µM.
As for `CCN(CC)CCNC(=O)c1c(C)[nH]c(/C=C2\C(=O)Nc3ccc(F)cc32)c1C` [SUNITINIB], the IC50 worked out at 4.93 µM in experiment [1], 16.9 µM in experiment [3] and 1.25 µM in experiment [2].
With `CCOC(=O)/C(=N/Nc1ccc(C)cc1)S/C(N)=N\N=C1/C(=O)N(Cc2ccccc2)c2ccc(Cl)cc21`, the IC50 was determined as 3.9 µM in experiment [1] and 2.88 µM in experiment [2].
